Test results reported in patent US10968236B2, “TYK2 inhibitors and uses thereof” (Nimbus Lakshmi, Inc., priority 2015, dated 2021).

Tests used:
[1] = target: JAK2 (Homo sapiens (Human), UniProt O60674); test: JAK2 activity inhibition assay (radioactive kinase / Caliper assay); type: biochemical
Experimental: (§1) Peptide substrate, [KKSRGDYMTMQIG], (20 μM) is prepared in reaction buffer (20 mM Hepes pH 7.5, 10 mM MgCl2, 1 mM EGTA, 0.02% Brij35, 0.02 mg/mL BSA, 0.1 mM […], 2 mM DTT, 1% DMSO. TYK2 (Invitrogen) kinase is added, followed by compounds in DMSO. 33PATP is added to initiate the reaction in ATP at 10 μM. Kinase reaction is incubated for 120 min at room temp and reactions are spotted onto P81 ion exchange paper (Whatman #3698-915), and then washed extensively in 0.75% phosphoric acid, prior to reading the radioactivity counts. For JAK2 (Invitrogen) kinase assay the peptide substrate poly[Glu:Tyr] (4:1), 0.2 mg/ml is used, in the reaction carried out the same as for TYK2.
(§2) The caliper machine employs an off chip mobility shift assay to detect phosphorylated peptide substrates from kinase assays, using microfluidics technology. The assays are carried out at ATP concentration equivalent to the ATP Km, and at 1 mM ATP. Compounds are serially diluted in DMSO then further diluted in assay buffer (25 mM HEPES, pH 7.5, 0.01% Brij-35, 0.01% Triton, 0.5 mM EGTA). 5 ul of diluted compound was added into wells first, then 10 ul of enzyme mix was added into wells, followed by 10 uL of substrate mix (peptide and ATP in 10 mM MgCl2) to start reaction. Reaction was incubated at 28° C. for 25 min and then added 25 ul stop buffer (100 mM HEPES, 0.015% Brij-35, 50 mM EDTA), followed by reading with Caliper. JAK2 at 1 nM final concentration and TYK2 at 9.75 nM are from Carna, and substrates used are ATP at 20 and 16 uM, respectively. JAK2 assay uses peptide 22 and TYK2 uses peptide 30 (Caliper), each at 3 uM.
(§3) The compound numbers correspond to the compound numbers in Table 1. Compounds having an activity designated as “A” provided an Ki≤0.01 μM; compounds having an activity designated as “B” provided an Ki of 0.01-0.1 μM; compounds having an activity designated as “C” provided an Ki of 0.1-1.0 μM; and compounds having an activity designated as “D” provided an Ki≥1.0 μM.

[2] = target: TYK2 (Homo sapiens (Human), UniProt P29597); test: Tyk2 activity inhibition assay (radioactive kinase / Caliper assay); type: biochemical
Sequence of TYK2 (P29597 whole entry): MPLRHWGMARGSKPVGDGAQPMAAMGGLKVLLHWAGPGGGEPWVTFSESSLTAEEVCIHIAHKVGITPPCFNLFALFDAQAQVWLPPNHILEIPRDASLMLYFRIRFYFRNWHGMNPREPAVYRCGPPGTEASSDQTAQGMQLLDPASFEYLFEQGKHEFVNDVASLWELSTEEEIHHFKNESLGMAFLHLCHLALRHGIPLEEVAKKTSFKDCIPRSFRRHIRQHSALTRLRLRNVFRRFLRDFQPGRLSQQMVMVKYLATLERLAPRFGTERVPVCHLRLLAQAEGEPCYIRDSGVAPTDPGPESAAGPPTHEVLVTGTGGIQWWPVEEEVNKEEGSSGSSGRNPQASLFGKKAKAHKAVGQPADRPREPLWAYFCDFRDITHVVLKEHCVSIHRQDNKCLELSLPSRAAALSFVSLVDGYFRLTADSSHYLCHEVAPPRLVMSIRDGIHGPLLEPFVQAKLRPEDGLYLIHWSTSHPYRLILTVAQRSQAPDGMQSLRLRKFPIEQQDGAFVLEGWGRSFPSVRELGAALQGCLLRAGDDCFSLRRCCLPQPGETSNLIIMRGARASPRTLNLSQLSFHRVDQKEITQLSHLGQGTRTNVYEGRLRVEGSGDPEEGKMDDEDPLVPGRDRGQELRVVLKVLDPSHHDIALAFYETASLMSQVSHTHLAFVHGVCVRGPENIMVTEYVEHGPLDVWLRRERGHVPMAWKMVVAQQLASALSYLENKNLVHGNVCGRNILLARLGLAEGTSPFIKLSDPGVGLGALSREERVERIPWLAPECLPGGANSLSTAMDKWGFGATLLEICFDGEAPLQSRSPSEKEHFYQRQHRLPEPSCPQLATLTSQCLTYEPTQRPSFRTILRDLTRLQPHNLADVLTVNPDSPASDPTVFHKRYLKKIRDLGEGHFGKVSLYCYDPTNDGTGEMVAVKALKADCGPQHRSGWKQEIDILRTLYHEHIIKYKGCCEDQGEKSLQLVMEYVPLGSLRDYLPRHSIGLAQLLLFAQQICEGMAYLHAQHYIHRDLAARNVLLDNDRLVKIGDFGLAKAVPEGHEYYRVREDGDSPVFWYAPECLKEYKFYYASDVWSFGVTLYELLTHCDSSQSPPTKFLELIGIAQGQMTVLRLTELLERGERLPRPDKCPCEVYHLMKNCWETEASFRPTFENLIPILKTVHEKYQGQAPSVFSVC
Experimental: as §1, §2, §3

Sequence of JAK2 (O60674 whole entry): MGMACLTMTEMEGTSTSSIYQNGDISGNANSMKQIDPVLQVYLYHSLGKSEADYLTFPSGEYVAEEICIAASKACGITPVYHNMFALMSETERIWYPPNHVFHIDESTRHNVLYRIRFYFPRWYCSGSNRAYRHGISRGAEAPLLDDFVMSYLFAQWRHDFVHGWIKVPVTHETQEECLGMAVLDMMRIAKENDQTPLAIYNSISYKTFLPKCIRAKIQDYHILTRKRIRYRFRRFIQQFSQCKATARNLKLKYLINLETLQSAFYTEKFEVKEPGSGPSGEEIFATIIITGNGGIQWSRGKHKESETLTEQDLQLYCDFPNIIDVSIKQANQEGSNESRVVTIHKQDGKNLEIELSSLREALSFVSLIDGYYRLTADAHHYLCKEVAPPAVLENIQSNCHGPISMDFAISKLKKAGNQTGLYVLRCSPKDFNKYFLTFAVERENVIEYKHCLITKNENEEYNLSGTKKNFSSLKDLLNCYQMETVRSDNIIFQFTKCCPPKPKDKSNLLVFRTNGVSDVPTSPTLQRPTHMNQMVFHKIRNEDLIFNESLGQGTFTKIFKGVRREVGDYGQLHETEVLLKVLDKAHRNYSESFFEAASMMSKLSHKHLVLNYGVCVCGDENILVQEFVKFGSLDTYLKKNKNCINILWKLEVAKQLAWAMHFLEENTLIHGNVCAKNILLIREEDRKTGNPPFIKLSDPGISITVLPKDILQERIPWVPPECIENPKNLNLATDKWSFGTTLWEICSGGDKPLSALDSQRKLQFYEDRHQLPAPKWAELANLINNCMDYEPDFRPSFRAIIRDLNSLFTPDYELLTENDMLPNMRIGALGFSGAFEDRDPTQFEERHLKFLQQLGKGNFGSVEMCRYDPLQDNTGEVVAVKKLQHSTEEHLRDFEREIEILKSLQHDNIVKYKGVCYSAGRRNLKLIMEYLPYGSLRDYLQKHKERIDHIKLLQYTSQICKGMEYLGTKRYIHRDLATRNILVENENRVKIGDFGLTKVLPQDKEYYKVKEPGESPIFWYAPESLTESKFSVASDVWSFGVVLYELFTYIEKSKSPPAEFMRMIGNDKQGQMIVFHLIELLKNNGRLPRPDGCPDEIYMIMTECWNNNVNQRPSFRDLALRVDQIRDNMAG

Row | SMILES | Ki [1] [nM] | Ki [2] [nM]
1 | CC(O)(c1ccc(Nc2cc(-c3c(F)cccc3F)nc3c2C(=O)NC3)cc1)C(F)(F)F (stereo not drawn) [Compound I-42, 2-(2,6-difluorophenyl)-4-((4-(1,1,1-trifluoro-2-hydroxypropan-2-yl)phenyl)amino)-6,7-dihydro-5H-pyrrolo[3,4-b]pyridin-5-one] | 10 to 100 | ≤ 10
2 | CC(O)(c1ccc(Nc2cc(-c3c(F)cccc3F)nc3c2C(=O)NC3)nc1)C(F)(F)F (stereo not drawn) [Compound I-78, 2-(2,6-difluorophenyl)-4-((5-(1,1,1-trifluoro-2-hydroxypropan-2-yl)pyridin-2-yl)amino)-6,7-dihydro-5H-pyrrolo[3,4-b]pyridin-5-one] | 10 to 100 | ≤ 10
3 | C[C@@](O)(C(=O)O)c1ccc(Nc2nc(-c3c(F)cccc3F)nc3c2C(=O)NC3)cc1 [Compound I-7, (S)-2-(4-((2-(2,6-difluorophenyl)-5-oxo-6,7-dihydro-5H-pyrrolo[3,4-d]pyrimidin-4-yl)amino)phenyl)-2-hydroxypropanoic acid] | 100 to 1000 | ≤ 10
4 | O=C1NCc2nc(-c3c(F)cccc3F)cc(Nc3ccc(C(=O)N4C[C@H]5COC[C@H]5C4)cc3)c21 [Compound I-63, 2-(2,6-difluorophenyl)-4-((4-((3aR,6aS)-hexahydro-1H-furo[3,4-c]pyrrole-5-carbonyl)phenyl)amino)-6,7-dihydro-5H-pyrrolo[3,4-b]pyridin-5-one] | 10 to 100 | ≤ 10
5 | O=C1NCc2nc(-c3c(F)cccc3F)nc(Nc3ccc(C(O)C(F)(F)F)cc3)c21 (stereo not drawn) [Compound I-29, 2-(2,6-difluorophenyl)-4-((4-(2,2,2-trifluoro-1-hydroxy-ethyl)phenyl)amino)-6,7-dihydro-5H-pyrrolo[3,4-d]pyrimidin-5-one] | 100 to 1000 | ≤ 10
6 | CCNC(=O)[C@](C)(O)c1ccc(Nc2nc(-c3c(F)cccc3F)nc3c2C(=O)NC3)cc1 [Compound I-16, (R)-2-(4-((2-(2,6-difluorophenyl)-5-oxo-6,7-dihydro-5H-pyrrolo[3,4-d]pyrimidin-4-yl)amino)phenyl)-N-ethyl-2-hydroxypropanamide] | 100 to 1000 | ≤ 10
7 | CC(O)(c1ccc(Nc2nc(-c3c(F)cccc3F)nc3c2C(=O)NC3)cc1)C(F)(F)F (stereo not drawn) [Compound I-33, 2-(2,6-difluorophenyl)-4-((4-(1,1,1-trifluoro-2-hydroxy-propan-2-yl)phenyl)amino)-6,7-dihydro-5H-pyrrolo[3,4-d]pyrimidin-5-one] | 100 to 1000 | ≤ 10
8 | O=C1NCc2nc(-c3c(F)cccc3F)cc(Nc3ccc(N4CCC5(CCCCO5)CC4)cn3)c21 [Compound I-53, 4-((5-(1-oxa-9-azaspiro[5.5]undecan-9-yl)pyridin-2-yl)amino)-2-(2,6-difluorophenyl)-6,7-dihydro-5H-pyrrolo[3,4-b]pyridin-5-one] | 10 to 100 | ≤ 10
9 | CC(N)(C(=O)O)c1ccc(Nc2nc(-c3c(F)cccc3F)nc3c2C(=O)NC3)cc1 (stereo not drawn) [Compound I-32, 2-amino-2-(4-((2-(2,6-difluorophenyl)-5-oxo-6,7-dihydro-5H-pyrrolo[3,4-d]pyrimidin-4-yl)amino)phenyl)propanoic acid] | ≥ 1000 | ≤ 10
10 | O=C1NCc2nc(-c3c(F)cccc3F)cc(Nc3ccc(N4CCOCC45CC5)cn3)c21 [Compound I-47, 4-((5-(7-oxa-4-azaspiro[2.5]octan-4-yl)pyridin-2-yl)amino)-2-(2,6-difluorophenyl)-6,7-dihydro-5H-pyrrolo[3,4-b]pyridin-5-one] | ≤ 10 | ≤ 10
11 | N#Cc1cccc(F)c1-c1cc(Nc2ccc(N3CC[C@]4(C[C@@H](O)CO4)C3)cn2)c2c(n1)CNC2=O [Compound I-92, 3-fluoro-2-(4-((5-((3R,5S)-3-hydroxy-1-oxa-7-azaspiro[4.4]nonan-7-yl)pyridin-2-yl)amino)-5-oxo-6,7-dihydro-5H-pyrrolo[3,4-b]pyridin-2-yl)benzonitrile] | 10 to 100 | ≤ 10
12 | O=C1NCc2nc(-c3c(F)cccc3F)cc(Nc3ccc4c(c3)OCO4)c21 [Compound I-68, 4-(benzo[d][1,3]dioxol-5-ylamino)-2-(2,6-difluorophenyl)-6,7-dihydro-5H-pyrrolo[3,4-b]pyridin-5-one] | 100 to 1000 | 10 to 100
13 | Nc1ccc2ccn(-c3cc(-c4c(F)cccc4F)nc4c3C(=O)NC4)c2n1 [Compound I-19, 4-(6-amino-1H-pyrrolo[2,3-b]pyridin-1-yl)-2-(2,6-difluorophenyl)-6,7-dihydro-5H-pyrrolo[3,4-b]pyridin-5-one] | ≥ 1000 | 10 to 100
14 | N#Cc1cccc(F)c1-c1cc(Nc2ccc(N3CC4(CC4)C(O)C4(CC4)C3)cn2)c2c(n1)CNC2=O [Compound I-87, 3-fluoro-2-(4-((5-(4-hydroxy-9-azadispiro[2.1.25.33]decan-9-yl)pyridin-2-yl)amino)-5-oxo-6,7-dihydro-5H-pyrrolo [3,4-b]pyridin-2-yl)benzonitrile] | ≤ 10 | ≤ 10
15 | CC1(c2ccc(Nc3cc(-c4c(F)cccc4F)nc4c3C(=O)NC4)nc2)CC(C)(C)N(C2=CCOCC2)C1=O (stereo not drawn) [Compound I-55, 2-(2,6-difluorophenyl)-4-((5-(1-(3,6-dihydro-2H-pyran-4-yl)-3,5,5-trimethyl-2-oxopyrrolidin-3-yl)pyridin-2-yl)amino)-6,7-dihydro-5H-pyrrolo[3,4-b]pyridin-5-one] | ≤ 10 | ≤ 10
16 | CN1CCc2cc(Nc3cc(-c4c(F)cccc4F)nc4c3C(=O)NC4)ccc2C1=O [Compound I-64, 6-((2-(2,6-difluorophenyl)-5-oxo-6,7-dihydro-5H-pyrrolo[3,4-b]pyridin-4-yl)amino)-2-methyl-3,4-dihydroisoquinolin-1 (2H)-one] | 10 to 100 | ≤ 10
17 | O=C1NCc2nc(-c3c(F)cccc3F)cc(Nc3ccc4c(c3)OC(F)(F)O4)c21 [Compound I-69, 4-((2,2-difluorobenzo[d][1,3]dioxol-5-yl)amino)-2-(2,6-difluoro-phenyl)-6,7-dihydro-5H-pyrrolo[3,4-b]pyridin-5-one] | ≥ 1000 | 10 to 100
18 | CC1(C)Cc2ccc(Nc3cc(-c4c(F)cccc4F)nc4c3C(=O)NC4)cc2O1 [Compound I-71, 2-(2,6-difluorophenyl)-4-((2,2-dimethyl-2,3-dihydrobenzofuran-6-yl)amino)-6,7-dihydro-5H-pyrrolo[3,4-b]pyridin-5-one] | 100 to 1000 | 10 to 100
19 | CCNC(=O)C(C)(O)c1ccc(Nc2nc(-c3c(F)cccc3F)nc3c2C(=O)NC3)cc1 (stereo not drawn) [Compound I-14, 2-(4-((2-(2,6-difluorophenyl)-5-oxo-6,7-dihydro-5H-pyrrolo[3,4-d]pyrimidin-4-yl)amino)phenyl)-N-ethyl-2-hydroxypropanamide] | 100 to 1000 | ≤ 10
20 | O=C1NCc2nc(-n3c(F)cccc3=O)cc(Nc3ccc(N4CCOCC4)cn3)c21 [Compound I-56, 2-(6-fluoro-2-oxopyridin-1(2H)-yl)-4-((5-morpholinopyridin-2-yl)amino)-6,7-dihydro-5H-pyrrolo[3,4-b]pyridin-5-one] | 100 to 1000 | 10 to 100
21 | O=C1NCc2nc(-c3c(F)cccc3F)cc(Nc3ccc(N4C[C@H]5COC[C@H]5C4)nc3)c21 [Compound I-73, 2-(2,6-difluorophenyl)-4-((6-((3aR,6aS)-tetrahydro-1H-furo[3,4-c]pyrrol-5(3H)-yl)pyridin-3-yl)amino)-6,7-dihydro-5H-pyrrolo[3,4-b]pyridin-5-one] | ≥ 1000 | 10 to 100
